These results are taken from patent publication US11460474B2, “Marker for statin treatment stratification in heart failure” (Roche Diagnostics Operations, Inc., priority 2013, dated 2022).

In assay [1] the test system is patient with heart failure. Nature of the assay: Case examples: statin therapy started after biomarker determination in heart failure patients. The conditions noted are these: person.
Experimental: PlGF is determined in a plasma sample obtained from the patient. The PlGF value is above 22 pg/mL. The physician prescribes atorvastatin 20 mg/d and closely monitors creatine kinase to exclude myopathy.
Assay [2] relates to patients with CHF. The conditions noted are these: rosuvastatin 10 mg daily, CORONA and GISSI-HF trials; cited from earlier work.

Turning to `CC(C)c1c(C(=O)Nc2ccccc2)c(-c2ccccc2)c(-c2ccc(F)cc2)n1CC[C@@H](O)C[C@@H](O)CC(=O)O` [atorvastatin, Atorvastatin], the “outcome (death or hospitalization)” value is “remains stable with a good outcome” in assay [1] (NYHA class III heart failure, prior myocardial infarction, PlGF above 22 pg/mL, atorvastatin 20 mg/d, next 1.5 years) and “remains stable with a good outcome” in assay [1] (class C heart failure, no CAD, GDF-15 above 3800 pg/mL, atorvastatin 10 mg/d, next 16 months).
Consider `CC(C)c1nc(N(C)S(C)(=O)=O)nc(-c2ccc(F)cc2)c1/C=C/[C@@H](O)C[C@@H](O)CC(=O)O` [rosuvastatin, Rosuvastatin], for which the “effect of statin treatment on primary end point” value in assay [2] is recorded as “failed to demonstrate a beneficial effect”.
